One may read the AUC as the area under the concentration-time curve, a measure of exposure. Usually Cmax stands for the highest concentration seen after dosing. Usually Tmax stands for the time from dosing to the highest level. By pEC50 is commonly meant −log10 of the EC50, conventionally taken in molar units.

The text below walks through data of ChEMBL document CHEMBL5576038, “Design of a novel long-acting dual GLP-1/GIP receptor agonist” (Bioorg Med Chem, 2024).

pEC50: −log10 of the molar value. Activity calls are given as the source filed them. The rule behind the calls is not given here. Where a SMILES comes first, the peptide text is derived from it. [ ]: non-standard residue; d: D form. The star is where a group is joined. X4 = O=C(O)CCCCCCCCCCCCCCCCCCC(=O)NCCOCCOCC(=O)N[C@@H](CCC(=O)N[C@@H](CCC(=O)N[C@@H](CCCCNC(=O)C*)C(=O)O)C(=O)O)C(=O)O; X2 = O=C(O)CCCCCCCCCCCCCCCCC(=O)NCCOCCOCC(=O)N[C@@H](CCC(=O)N[C@H](CCC(=O)N[C@H](CCCCNC(=O)C*)C(=O)O)C(=O)O)C(=O)O; Aib = CC(C)(N)C(=O)O

Data set [1] can be described thus: AUC (0 to 168 hrs) in Beagle dog at 10 nmol/kg, sc administered as single dose and measured upto 168 hrs by LC-MS/MS analysis. The format is ADME, organism-based, Canis lupus familiaris. The conditions noted are these: in vivo, sc, 168 h.
A short description of data set [2]: Cmax in Beagle dog at 10 nmol/kg, sc administered as single dose and measured upto 168 hrs by LC-MS/MS analysis. The format is ADME, organism-based, Canis lupus familiaris. The conditions noted are these: in vivo, sc, 168 h.
The nature of data set [3]: Elimination half life in Beagle dog at 10 nmol/kg, sc administered as single dose and measured upto 168 hrs by LC-MS/MS analysis. Type of data set: ADME, organism-based, Canis lupus familiaris. The conditions noted are these: in vivo, sc, 168 h.
The nature of data set [4]: Tmax in Beagle dog at 10 nmol/kg, sc administered as single dose and measured upto 168 hrs by LC-MS/MS analysis. The format is ADME, organism-based, Canis lupus familiaris. As to conditions: in vivo, sc, 168 h.
Data set [5] addresses T1, Gastric inhibitory polypeptide receptor (Homo sapiens, UniProt P48546).
T1 sequence (P48546 whole entry): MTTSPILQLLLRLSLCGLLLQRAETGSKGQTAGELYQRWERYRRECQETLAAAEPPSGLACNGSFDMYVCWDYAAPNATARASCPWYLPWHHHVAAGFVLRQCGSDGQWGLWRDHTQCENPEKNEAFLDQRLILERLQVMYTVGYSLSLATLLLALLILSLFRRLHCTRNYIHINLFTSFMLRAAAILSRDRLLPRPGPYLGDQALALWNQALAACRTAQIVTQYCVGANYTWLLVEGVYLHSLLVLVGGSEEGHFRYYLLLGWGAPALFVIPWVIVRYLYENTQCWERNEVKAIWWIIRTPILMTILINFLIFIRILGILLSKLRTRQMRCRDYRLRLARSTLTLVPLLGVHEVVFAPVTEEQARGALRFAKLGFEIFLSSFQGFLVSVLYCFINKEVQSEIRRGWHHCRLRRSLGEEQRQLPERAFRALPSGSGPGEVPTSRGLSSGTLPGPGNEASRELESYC
The data set is described as follows: Agonist activity at human GIPR expressed in CHO cells assessed as increase in cAMP production incubated for 30 mins by Eu-cAMP tracer based microplate reader analysis. Type of data set: functional, cell-based. On the technique in general: Cyclic AMP is a second messenger, typically raised through Gs and lowered through Gi signalling.

In data set [6] the target is Glucagon-like peptide 1 receptor (Homo sapiens, UniProt P43220). Nature of the data set: Agonist activity at human GLP-1R expressed in CHO cells assessed as increase in cAMP production incubated for 30 mins by Eu-cAMP tracer based microplate reader analysis. Type of data set: functional, cell-based.
Glucagon-like peptide 1 receptor, sequence (P43220 whole entry): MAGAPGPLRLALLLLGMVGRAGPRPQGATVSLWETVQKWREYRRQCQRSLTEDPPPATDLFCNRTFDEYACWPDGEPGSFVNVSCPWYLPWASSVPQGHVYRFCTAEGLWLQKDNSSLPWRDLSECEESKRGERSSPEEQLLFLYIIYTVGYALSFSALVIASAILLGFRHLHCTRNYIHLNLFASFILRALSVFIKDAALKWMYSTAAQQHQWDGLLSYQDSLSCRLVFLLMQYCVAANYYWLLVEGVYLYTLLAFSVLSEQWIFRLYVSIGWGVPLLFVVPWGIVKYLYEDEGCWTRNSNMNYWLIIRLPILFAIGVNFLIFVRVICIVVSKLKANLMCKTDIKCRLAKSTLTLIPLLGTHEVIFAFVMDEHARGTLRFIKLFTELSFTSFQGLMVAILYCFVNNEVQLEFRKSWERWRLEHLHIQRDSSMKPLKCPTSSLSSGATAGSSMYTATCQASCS
The test system of data set [7] is Mus musculus. The data set is described as follows: Glucose-lowering effect in male ICR mouse assessed as reduction in plasma glucose AUC (0 to 72 hrs) at 30 nmol/kg, sc pretreated for 71 hrs followed by […] administration and measured after 60 mins by oral glucose tolerance test. The format is functional, organism-based.
Data set [8] relates to Mus musculus. The data set is described as follows: Reduction in body weight in male ICR mouse at 30 nmol/kg, sc measured for 4 days. The format is functional, organism-based. The conditions noted are these: time 4.0 day.
In data set [9] the test system is Mus musculus. The data set is described as follows: Hypoglycemic effect in male db/db mouse model assessed as reduction in body weight at 30 nmol/kg, sc administered every 3 days for 60 days and measured every 3 days. The format is functional, organism-based. As to conditions: time 60.0 day.
Data set [10] deals with Mus musculus. The data set is described as follows: Hypoglycemic effect in male db/db mouse model assessed as reduction in HbA1c level at 30 nmol/kg, sc administered every 3 days for 60 days and measured on day 18, 31, 37, 52, 58 and 60 by auto-chemistry analyzer. Type of data set: functional, organism-based. As to conditions: time 60.0 day.
Data set [11] relates to Mus musculus. The data set is described as follows: Anti-obesity activity in male C57/B16 mouse model of diet-induced obesity assessed as reduction in body weight at 10 nmol/kg, sc administered every 3 days for 46 days and measured every 3 days relative to control. The conditions noted are these: time 46.0 day. On the set-up: scale not given: the % may be the effect or the level left. Type of data set: functional.

Data set [12] deals with Mus musculus. The data set is described as follows: Hypoglycemic effect in male db/db mouse model assessed as blood glucose level at 30 nmol/kg, sc administered every 3 days for 31 days and measured 72 hrs post each dose. Type of data set: functional, organism-based. The conditions noted are these: time 31.0 day.
The subject of data set [13] is Mus musculus. Nature of the data set: Increase in body weight in male ICR mouse at 30 nmol/kg, sc measured after 2 days. The format is functional, organism-based. As to conditions: time 2.0 day.

TIRZEPATIDE [listing 1 of 2 here] displayed an AUC in data set [1] of 35123 ng·h/mL. Moreover, in [2], the Cmax worked out at 344 ng/mL. In addition, the “beta t1/2” value in data set [3] came out at 93.8 h. Moreover, the Tmax in data set [4] worked out at 14 h.
`CC(C)C[C@H](NC(=O)[C@H](CC(C)C)NC(=O)[C@H](Cc1c[nH]c2ccccc12)NC(=O)[C@H](CSCC(=O)NCCCC[C@H](NC(=O)CC[C@H](NC(=O)CC[C@H](NC(=O)COCCOCCNC(=O)CCCCCCCCCCCCCCCCCCC(=O)O)C(=O)O)C(=O)O)C(=O)O)NC(=O)[C@@H](NC(=O)[C@H](Cc1ccccc1)NC(=O)[C@H](CC(C)C)NC(=O)[C@H](CCCCN)NC(=O)[C@H](C)NC(=O)[C@H](C)NC(=O)[C@H](CCC(N)=O)NC(=O)[C@H](CCCCN)NC(=O)[C@H](CCC(=O)O)NC(=O)[C@H](CC(C)C)NC(=O)[C@H](Cc1ccc(O)cc1)NC(=O)[C@H](Cc1ccc(O)cc1)NC(=O)[C@H](CO)NC(=O)[C@H](Cc1ccc(O)cc1)NC(=O)[C@H](CC(=O)O)NC(=O)[C@H](CO)NC(=O)[C@@H](NC(=O)[C@H](Cc1ccccc1)NC(=O)[C@@H](NC(=O)CNC(=O)[C@H](CCC(=O)O)NC(=O)C(C)(C)NC(=O)[C@@H](N)Cc1ccc(O)cc1)[C@@H](C)O)[C@@H](C)O)C(C)C)C(=O)N[C@@H](C)C(=O)NCC(=O)NCC(=O)N1CCC[C@H]1C(=O)N[C@@H](CO)C(=O)N[C@@H](CO)C(=O)NCC(=O)N[C@@H](C)C(=O)N1CCC[C@H]1C(=O)N1CCC[C@H]1C(=O)N1CCC[C@H]1C(=O)N[C@@H](CO)C(N)=O` (H-Y[Aib]EGTFTSDYSYYLEKQAAKLFVC(X4)WLLAGGPSSGAPPPS-NH2): the pEC50 in data set [5] is 8.95; in data set [6] it was 9.36. Besides, the outcome in the data set with Mus musculus [7] was Active.
In the case of TIRZEPATIDE [listing 2 of 2 here], the result in the data set on Mus musculus [8], in the data set with Mus musculus [9], in the data set on Mus musculus [10] and in the data set with Mus musculus [12] was Active. Further, the Activity in the data set with Mus musculus [11] turned out to be 21%.
In the case of `CC(C)C[C@H](NC(=O)[C@H](CC(C)C)NC(=O)[C@H](Cc1c[nH]c2ccccc12)NC(=O)[C@H](CCC(N)=O)NC(=O)[C@@H](NC(=O)[C@H](Cc1ccccc1)NC(=O)[C@H](CC(C)C)NC(=O)[C@H](CCCCN)NC(=O)[C@H](C)NC(=O)[C@H](C)NC(=O)[C@H](CCC(N)=O)NC(=O)[C@H](CSCC(=O)NCCCC[C@@H](NC(=O)CC[C@@H](NC(=O)CC[C@H](NC(=O)COCCOCCNC(=O)CCCCCCCCCCCCCCCCC(=O)O)C(=O)O)C(=O)O)C(=O)O)NC(=O)[C@H](CCC(=O)O)NC(=O)[C@H](CC(C)C)NC(=O)[C@H](Cc1ccc(O)cc1)NC(=O)[C@H](Cc1ccc(O)cc1)NC(=O)[C@H](CO)NC(=O)[C@H](Cc1ccc(O)cc1)NC(=O)[C@H](CC(=O)O)NC(=O)[C@H](CO)NC(=O)[C@@H](NC(=O)[C@H](Cc1ccccc1)NC(=O)[C@@H](NC(=O)CNC(=O)[C@H](CCC(=O)O)NC(=O)C(C)(C)NC(=O)[C@@H](N)Cc1ccc(O)cc1)[C@@H](C)O)[C@@H](C)O)C(C)C)C(=O)N[C@@H](C)C(=O)NCC(=O)NCC(=O)N1CCC[C@H]1C(=O)N[C@@H](CO)C(=O)N[C@@H](CO)C(=O)NCC(=O)N[C@@H](C)C(=O)N1CCC[C@H]1C(=O)N1CCC[C@H]1C(=O)N1CCC[C@H]1C(=O)N[C@@H](CO)C(N)=O` (H-Y[Aib]EGTFTSDYSYYLEC(X2)QAAKLFVQWLLAGGPSSGAPPPS-NH2), the results for the pEC50 in [5] (cho) and in data set [6] (cho) were 9.96 and 9.85, respectively. Moreover, the result in the data set on Mus musculus [7] and in the data set on Mus musculus [13] was Active.
